The results in this text go back to BindingDB's records for doi:10.1016/j.ejmech.2020.112339 (China Pharmaceutical University, 2020).

The nature of the experiment: Inhibition of BTK in human TMD8 cells assessed as reduction in cell proliferation incubated for 24 hrs by CCK-8 assay. In general terms: Formazan colour is commonly taken as a measure of viable cells.

A word on the IC50: it is the concentration that inhibits the measured activity by half. Take `C=CC(=O)Nc1cccc(Nc2ncnc(Nc3ccc(C(=O)N4CCCCC4)cc3)n2)c1`: the half-inhibitory concentration (IC50) is 4.36 µM.
